Assay results published in patent publication US6737383B1, “Herbicidal oxadiazolidines” (priority 1999, dated 2004).

Legend:
[1] = system: cocklebur; test: Test B pre/postemergence cocklebur; assay type: in vivo, Xanthium strumarium
Method in brief: (§1)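 Test chemicals in a non-phytotoxic solvent mixture with surfactant were sprayed preemergence onto planted seeds and postemergence onto plants 2 to 18 cm tall (1- to 4-leaf stage). After twelve to sixteen days in a greenhouse, injury was visually rated against untreated controls from 0 (no effect) to 10 (complete control).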

[2] = system: bedstraw; test: Test B pre/postemergence bedstraw; assay type: in vivo, Galium aparine
Method in brief: as §1

[3] = system: wheat; test: Test B pre/postemergence wheat; assay type: in vivo, Triticum aestivum
Method in brief: as §1

[4] = system: giant foxtail; test: Test B pre/postemergence giant foxtail; assay type: in vivo, Setaria faberii
Method in brief: as §1

[5] = system: purple nutsedge; test: Test B pre/postemergence purple nutsedge; assay type: in vivo, Cyperus rotundus
Method in brief: as §1

[6] = system: soybean; test: Test B pre/postemergence soybean; assay type: in vivo, Glycine max
Method in brief: as §1

[7] = system: sugar beet; test: Test B pre/postemergence sugar beet; assay type: in vivo, Beta vulgaris
Method in brief: as §1

[8] = system: crabgrass; test: Test B pre/postemergence crabgrass; assay type: in vivo, Digitaria sanguinalis
Method in brief: as §1

[9] = system: rape; test: Test B pre/postemergence rape; assay type: in vivo, Brassica napus
Method in brief: as §1

[10] = system: morningglory; test: Test B pre/postemergence morningglory; assay type: in vivo, Ipomoea hederacea
Method in brief: as §1

[11] = system: corn; test: Test B pre/postemergence corn; assay type: in vivo, Zea mays
Method in brief: as §1

[12] = system: pigweed; test: Test B pre/postemergence pigweed; assay type: in vivo, Amaranthus retroflexus
Method in brief: as §1

[13] = system: surinam grass; test: Test B pre/postemergence surinam grass; assay type: in vivo, Brachiaria decumbens
Method in brief: as §1

[14] = system: wild oat; test: Test B pre/postemergence wild oat; assay type: in vivo, Avena fatua
Method in brief: as §1

[15] = system: velvetleaf; test: Test B pre/postemergence velvetleaf; assay type: in vivo, Abutilon theophrasti
Method in brief: as §1

[16] = system: blackgrass; test: Test B pre/postemergence blackgrass; assay type: in vivo, Alopecurus myosuroides
Method in brief: as §1

[17] = Postemergence, Rate 62 g/ha, scale of 0 to 10, 0 is no effect, 10 is complete control
[18] = Postemergence, Rate 125 g/ha, scale 0 to 10, 0 is no effect, 10 is complete control
[19] = Postemergence, Rate 500 g/ha, scale 0 to 10, 0 is no effect, 10 is complete control
[20] = Preemergence, Rate 62 g/ha, scale 0 to 10 (0 no effect, 10 complete control)
[21] = Preemergence, Rate 125 g/ha, scale 0 to 10, 0 is no effect, 10 is complete control
[22] = Preemergence, Rate 500 g/ha, scale of 0 to 10 where 0 is no effect and 10 is complete control
[23] = Rate 250 g/ha, Postemergence, scale of 0 to 10 where 0 is no effect and 10 is complete control

CC(C)N(C(=O)n1oc(=O)n(CCCC(F)(F)F)c1=O)c1ccc(Cl)cc1 [Compound 555]
Cocklebur plant response rating [1, 17]: 0 | Cocklebur plant response rating [1, 18]: 0 | Plant response rating, Cocklebur [1, 19]: 3 | Cocklebur plant response rating [1, 20]: 0 | Cocklebur plant response rating [1, 21]: 0 | Cocklebur plant response rating (0 to 10 scale) ([1]; Preemergence, Rate 250 g/ha): 2 | Cocklebur plant response rating [1, 22]: 9 | Plant response rating, Cocklebur [1, 23]: 0 | Bedstraw plant response rating [2, 17]: 2 | Bedstraw plant response rating [2, 18]: 9 | Bedstraw plant response rating [2, 20]: 0 | Bedstraw plant response rating [2, 21]: 0 | Bedstraw plant response rating (0 to 10 scale) ([2]; Preemergence, Rate 250 g/ha): 0 | Bedstraw plant response rating [2, 22]: 0 | Plant response rating, Bedstraw [2, 23]: 9 | Wheat plant response rating [3, 17]: 6 | Plant response rating, Wheat [3, 19]: 2 | Wheat plant response rating [3, 20]: 0 | Wheat plant response rating [3, 21]: 0 | Wheat plant response rating (0 to 10 scale) ([3]; Preemergence, Rate 250 g/ha): 2 | Wheat plant response rating [3, 22]: 3 | Plant response rating, Wheat [3, 23]: 0 | Giant foxtail plant response rating [4, 17]: 0 | Giant foxtail plant response rating [4, 18]: 0 | Plant response rating, Giant foxtail [4, 19]: 8 | Giant foxtail plant response rating [4, 20]: 9 | Giant foxtail plant response rating [4, 21]: 10 | Giant foxtail plant response rating (0 to 10 scale) ([4]; Preemergence, Rate 250 g/ha): 10 | Giant foxtail plant response rating [4, 22]: 10 | Plant response rating, Giant foxtail [4, 23]: 8 | Nutsedge plant response rating [5, 17]: 0 | Nutsedge plant response rating [5, 18]: 0 | Plant response rating, Nutsedge [5, 19]: 0 | Nutsedge plant response rating [5, 20]: 0 | Nutsedge plant response rating [5, 21]: 0 | Nutsedge plant response rating (0 to 10 scale) ([5]; Preemergence, Rate 250 g/ha): 0 | Nutsedge plant response rating [5, 22]: 0 | Plant response rating, Nutsedge [5, 23]: 0 | Soybean plant response rating [6, 17]: 1 | Plant response rating, Soybean [6, 19]: 2 | Soybean plant response rating [6, 20]: 0 | Soybean plant response rating [6, 21]: 0 | Soybean plant response rating (0 to 10 scale) ([6]; Preemergence, Rate 250 g/ha): 0 | Soybean plant response rating [6, 22]: 2 | Plant response rating, Soybean [6, 23]: 2 | Sugarbeets plant response rating [7, 17]: 0 | Plant response rating, Sugarbeets [7, 19]: 0 | Sugarbeets plant response rating [7, 20]: 2 | Sugarbeets plant response rating [7, 21]: 5 | Sugarbeets plant response rating [7, 22]: 5 | Plant response rating, Sugarbeets [7, 23]: 0 | Crabgrass plant response rating [8, 17]: 0 | Crabgrass plant response rating [8, 18]: 0 | Plant response rating, Crabgrass [8, 19]: 10 | Crabgrass plant response rating [8, 20]: 9 | Crabgrass plant response rating [8, 21]: 9 | Crabgrass plant response rating (0 to 10 scale) ([8]; Preemergence, Rate 250 g/ha): 10 | Crabgrass plant response rating [8, 22]: 10 | Plant response rating, Crabgrass [8, 23]: 9 | Rape plant response rating [9, 17]: 4 | Rape plant response rating [9, 18]: 5 | Plant response rating, Rape [9, 19]: 5 | Rape plant response rating [9, 20]: 0 | Rape plant response rating [9, 21]: 0 | Rape plant response rating (0 to 10 scale) ([9]; Preemergence, Rate 250 g/ha): 0 | Rape plant response rating [9, 22]: 0 | Morningglory plant response rating [10, 17]: 1 | Morningglory plant response rating [10, 18]: 2 | Plant response rating, Morningglory [10, 19]: 6 | Morningglory plant response rating [10, 20]: 0 | Morningglory plant response rating [10, 21]: 0 | Morningglory plant response rating (0 to 10 scale) ([10]; Preemergence, Rate 250 g/ha): 0 | Morningglory plant response rating [10, 22]: 0 | Plant response rating, Morningglory [10, 23]: 5 | Corn plant response rating [11, 17]: 0 | Corn plant response rating [11, 18]: 0 | Plant response rating, Corn [11, 19]: 0 | Corn plant response rating [11, 20]: 0 | Corn plant response rating [11, 21]: 0 | Corn plant response rating (0 to 10 scale) ([11]; Preemergence, Rate 250 g/ha): 0 | Corn plant response rating [11, 22]: 2 | Plant response rating, Corn [11, 23]: 0 | Redroot pigweed plant response rating [12, 17]: 0 | Plant response rating, Redroot pigweed [12, 19]: 2 | Redroot pigweed plant response rating [12, 20]: 0 | Redroot pigweed plant response rating [12, 21]: 0 | Redroot pigweed plant response rating (0 to 10 scale) ([12]; Preemergence, Rate 250 g/ha): 3 | Redroot pigweed plant response rating [12, 22]: 7 | Plant response rating, Redroot pigweed [12, 23]: 2 | B. signalgrass plant response rating [13, 17]: 0 | B. signalgrass plant response rating [13, 18]: 0 | Plant response rating, B. signalgrass [13, 19]: 4 | B. signalgrass plant response rating [13, 20]: 6 | B. signalgrass plant response rating [13, 22]: 8 | Plant response rating, B. signalgrass [13, 23]: 0 | Wild oats plant response rating [14, 17]: 0 | Plant response rating, Wild oats [14, 19]: 2 | Wild oats plant response rating [14, 20]: 0 | Wild oats plant response rating [14, 21]: 0 | Wild oats plant response rating (0 to 10 scale) ([14]; Preemergence, Rate 250 g/ha): 0 | Wild oats plant response rating [14, 22]: 7 | Plant response rating, Wild oats [14, 23]: 0 | Velvetleaf plant response rating [15, 17]: 0 | Plant response rating, Velvetleaf [15, 19]: 4 | Velvetleaf plant response rating [15, 20]: 0 | Velvetleaf plant response rating [15, 21]: 0 | Velvetleaf plant response rating (0 to 10 scale) ([15]; Preemergence, Rate 250 g/ha): 0 | Velvetleaf plant response rating [15, 22]: 6 | Plant response rating, Velvetleaf [15, 23]: 2 | Blackgrass plant response rating [16, 17]: 0 | Blackgrass plant response rating [16, 18]: 2 | Plant response rating, Blackgrass [16, 19]: 5 | Blackgrass plant response rating [16, 20]: 0 | Blackgrass plant response rating [16, 21]: 0 | Blackgrass plant response rating (0 to 10 scale) ([16]; Preemergence, Rate 250 g/ha): 0 | Blackgrass plant response rating [16, 22]: 8 | Plant response rating, Blackgrass [16, 23]: 2
